Experimental data as given in patent US9732067B2, “Compounds and methods for activating the apoptotic arm of the unfolded protein response” (University of Kansas, priority 2012, dated 2017).
Read-outs that look alike come from different tables or passages of the source.

Tests used:
[1] = Toxicity towards Fa2N-4 immortalized human hepatocytes; format: cell-based; conditions: read-out: Toxicity Towards Fa2N-4 Immortalized Human Hepatocytes LC50
[2] = PAMPA permeability; format: in vitro ADME
Description: The PAMPA (Parallel Artificial Membrane Permeability Assay) assay was used as an in vitro model of passive, transcellular permeability. An artificial membrane immobilized on a filter was placed between a donor and acceptor compartment. At the start of the test, drug was introduced in the donor compartment. Following the permeation period, the concentration of drug in the donor and acceptor compartments was measured using UV spectroscopy.

[3] = Plasma protein binding, mouse; format: in vitro ADME
Source text: Plasma protein binding is a measure of a drug's efficiency to bind to the proteins within blood plasma. The less bound a drug is, the more efficiently it can traverse cell membranes or diffuse. Highly plasma protein bound drugs are confined to the vascular space, thereby having a relatively low volume of distribution. In contrast, drugs that remain largely unbound in plasma are generally available for distribution to other organs and tissues. ML291 was highly plasma protein bound to human plasma proteins (>99%), though it is somewhat less tightly bound to mouse plasma proteins (˜84%).

[4] = test system: OSCC; assay: Preliminary combination studies with cisplatin and taxol; format: cell-based
Description: To confirm the ability of ML291 to activate UPR-luciferase reporters stably transfected into UMSCC23 and A253 cells and reduce tumor burden, additional xenograft studies are performed with additional animals to permit real-time measurement of UPR activation during drug treatment (bioluminescent imaging). The data presented herein indicate that ML291 can activate the UPR in xenograft tissue at 10 mg/kg. […] Thus, mice are injected IP in the morning with 10-100 mg/kg ML291. Injection in the morning, i.e., when the lights come on in the vivarium and the mice stomachs are most likely to be full, is a technique known to enhance absorption of nitrofurans into the bloodstream (Heinrichs (2001) Behavioural Brain Res. 125:81-88). […] Upon completion of this experiment, control and ML291 treated mice (3 each) undergo complete pathological necropsy to identify gross or histological signs of organ toxicity. Once the degree to which ML291 induces the UPR and reduces xenograft burden is analyzed, additional studies are carried out with combination therapies using standard of care OSCC drugs. […] It is posited that ML291-enforced UPR in the tumor milieu potentiates conventional therapies and might enhance the effects of cisplatin, ifosfamide or taxol.

[5] = test system: H460/T800; assay: Proliferation, H460/T800; format: cell-based; conditions: Homo sapiens, NCI-H460, 24 hours, average of three experiments
Description: (§1) To determine whether ML291 could reduce the proliferation of malignant cells, a panel of OSCC (UMSCC23, A253, HN6, HN12, HN30, H460/T800) and ovarian cancer (RMG-1, TOV112D, A2780 and SKOV3) cell lines, were treated with increasing doses (0.15-20 μM) of ML291 for 24 hours (FIGS. 3A and 3B).

[6] = Hepatic microsome stability, human; format: in vitro ADME
Source text: (§2) The microsomal stability assay is commonly used to rank compounds according to their metabolic stability. This assay addresses the pharmacologic question of how long the parent compound will remain circulating in plasma within the body.

[7] = test system: A2780 (ovarian); assay: Proliferation, A2780; format: cell-based; conditions: Homo sapiens, 24 hours
Description: as §1

[8] = test system: HN12; assay: Proliferation, HN12; format: cell-based; conditions: 24 hours, average of three experiments
Description: as §1

[9] = Hepatic microsome stability, mouse; format: in vitro ADME
Source text: as §2

[10] = Stability in PBS at room temperature; format: physicochemical; conditions: 48 hours, 23° C.
Description: Stability was measured under two distinct conditions with ML291: at room temperature (23° C.) in PBS (no antioxidants or other protectants and DMSO concentration below 0.1%) and with 50% acetonitrile added to account for challenges with solubility of the compound in PBS alone. Stability was determined as the loss of compound with time over a 48 hour period with a minimum of 6 time points.

[11] = test system: PERK-eIF2α-CHOP (apoptotic) arm of the Unfolded Protein Response pathway; assay: UPR-CHOP primary assay (CHO-CHOP luciferase reporter); format: cell-based
Description: The purpose of this assay was to detect activators of the PERK-eIF2α-CHOP (apoptotic) arm of the Unfolded Protein Response pathway.
Cells were passaged twice a week. […] Once the cells had reached confluency, old medium was aspirated and the flasks were washed with 20 mL DPBS per T225 flask. Cells were left in DPBS for about 30 seconds. Subsequently, 6.5 mL 0.05% trypsin solution was added into the flask and the flask was rocked gently so that the solution covered the surface. The cells were allowed to detach by incubating at room temperature for about 4 minutes. The flask was washed with […] fresh growth media and the cell suspension was collected in a 50 mL sterile conical tube. The collected cells were centrifuged at 900 rpm for 5 minutes and re-suspended in 1 mL fresh growth media. An additional 19 mL of growth media was added and the tube was mixed gently. The cell suspension was filtered with a cell strainer and the cells were counted.
As above, cells were grown to confluency, washed, and detached with 5 mL trypsin solution for 4 minutes at room temperature. The flask was washed with 25 mL fresh growth media and the cell suspension was collected in a 50 mL sterile conical tube. The cells were centrifuged at 500 rpm for 10 minutes and re-suspended carefully in 1 mL fresh assay medium. An additional 19 mL of assay media was added the cells were mixed gently. The cell suspension was filtered with a cell strainer and the number of cells was counted. Cell density was adjusted to 1.0×10^5 cells/mL in medium.
On day 1, cell suspensions were prepared and 500 cells in 5 μL of assay media were plated in the wells of columns 1-48 of a 1536-well assay plate. The plates were centrifuged at 500 rpm for 1 minute and subsequently incubated at 37° C., 100% relative humidity, 5% CO2 for 16-18 hours.
[…] […] The plates were centrifuged at 1000 rpm for 1 minute and subsequently incubated at 37° C., 100% relative humidity, 5% CO2 for 6 hours.
Following the 6-hour incubation the plate was incubated for 10 minutes at room temperature and 3 μL of STEADY-GLO was added to each well. The plates were centrifuged at 2000 rpm for 2 minutes and subsequently incubated at room temperature for 10 minutes. Luminescence was measured with a luminometer.
The MLPCN library of approximately 330,000 compounds was tested in the UPR-CHOP primary screen utilizing a luciferase-based reporter expressed in a CHO cell line to identify activators of the CHOP apoptotic pathway. […]

In the case of `O=C(Nc1ccc(S(=O)(=O)N2CCC(Cl)CC2)cc1)c1ccc([N+](=O)[O-])o1` [ML291, N-(4-((4-chloropiperidin-1-yl)sulfonyl)phenyl)-5-nitrofuran-2-carboxamide], the CC50 [1] is reported as 11400 nM, the “PAMPA Permeability, Pe” value ([2]; Donor pH 5.0, Acceptor pH 7.4) is reported as 291 ×10⁻⁶ cm/s and the “PAMPA Permeability, Pe” value ([2]; Donor pH 6.2, Acceptor pH 7.4) is reported as 329 ×10⁻⁶ cm/s. The “PAMPA Permeability, Pe” value ([2]; Donor pH 7.4, Acceptor pH 7.4) was 245 ×10⁻⁶ cm/s, the “PAMPA permeability” value ([2]; donor pH 5.0, 6.2 and 7.4) was “good permeability” and the “bound to mouse plasma proteins” value [3] was about 84%. The fraction unbound at 1 µM ([3]; plasma, Mouse, 1 μM, read-out: Plasma Protein Binding (% Bound) (converted)) was 0.155, the fraction unbound at 10 µM ([3]; plasma, Mouse, 10 μM, read-out: Plasma Protein Binding (% Bound) (converted)) was 0.157 and the “effect of combination with cisplatin and taxol” value [4] was “reduced IC50 values”. The IC50 [5] was 18900 ± 1830 nM, the “Hepatic Microsome Stability (% Remaining after 1 hour @ 37° C.)” value ([6]; Human) was 0.49% and the “metabolism in human liver homogenates” value ([6]; within 1 hour) was “almost completely metabolized”. For the same compound, the IC50 [7] was 2160 nM, the IC50 [8] was 7170 ± 690 nM and the “Hepatic Microsome Stability (% Remaining after 1 hour @ 37° C.)” value ([9]; Mouse) was 0.02%. For the same compound, the “metabolism in mouse liver homogenates” value ([9]; within 1 hour) was “almost completely metabolized”, the “percent remaining compound in PBS with 50% acetonitrile” value [10] was 100% and the “percent remaining compound in PBS” value ([10]; no additives) was 11.44%. The “selectivity (XBP1 over CHOP)” value [11] was over 108.1 fold, the EC50 ([11]; CHO-K1, text, read-out: EC50 in the CHO-K1 cell reporter assays (CHOP)) was 762 nM and the EC50 ([11]; Cricetulus griseus, Table 1, mean of replicates, AID602434, read-out: UPR CHOP Assay Potency EC50) was 740 nM. For the same compound, the EC50 ([11]; Cricetulus griseus, read-out: CHOP EC50) was 740 nM, the “Selectivity (XBP1/CHOP) x-fold” value ([11]; Table 1) was over 108.1 x-fold and the EC50 ([11]; Table 9, average of four runs, F12 HAMs, 10% hi-FBS, read-out: EC50 UPR CHOP Assay) was 780 nM. The EC50 ([11]; read-out: EC50 in the CHO-K1 cell reporter assays (CHOP)) was 760 nM.
